Measured values from PMC12655172, “Borylated 5-Membered Ring Iminosugars: Synthesis and Biological Evaluation for Glycosidase Inhibition and Anticancer Properties for Application in Boron Neutron Capture Therapy (BNCT)—Part 2” (Pharmaceuticals, 2025).
“Also recorded” adds a separate entry of the source.

Key:
α-D-glucosidase (rice) = α-D-glucosidase (rice) (Oryza sativa subsp. japonica, UniProt Q653V7); test: Glycosidase inhibition (Table 2 panel); assay type: biochemical
From the text: (§1) The enzymes α-D-glucosidase (yeast), β-D-glucosidases (almond, bovine liver), α-D-galactosidase (coffee beans), β-D-galactosidase (bovine liver), α-D-mannosidase (Jack bean), β-D-mannosidase (snail), α-L-rhamnosidase (P. decumbens), α-L-fucosidase (bovine kidney), trehalase (porcine kidney), β-D-glucuronidases (E. coli, bovine liver), amyloglucosidase (A. niger), para-nitrophenyl glycosides, and various disaccharides were purchased from Sigma-Aldrich Co (St. Louis, MO, USA).
(§2) Brush border membranes were prepared from the rat small intestine according to the method of Kessler et al., and were assayed at pH 6.8 for rat intestinal maltase using maltose. For rat intestinal maltase, porcine kidney trehalase, and A. niger amyloglucosidase activities, the reaction mixture contained maltose ([…]) and the appropriate amount of enzyme, and the incubations were performed for 10–30 min at 37 °C. The reaction was stopped by heating at 100 °C for 3 min. After centrifugation (600 g; 10 min), the resulting reaction mixture was added to the Glucose CII-test Wako (Wako Pure Chemical Ind., Osaka, Japan). The absorbance at 505 nm was measured to determine the amount of the released D-glucose. Other glycosidase activities were determined using an appropriate para-nitrophenyl glycoside as substrate at the optimum pH of each enzyme. The reaction mixture contained the substrate ([…]) and the appropriate amount of enzyme. The reaction was stopped by the addition of Na2CO3 ([…]). The released para-nitrophenol was measured spectrometrically at 400 nm. All reactions were run in […].

[1] = target: T1, β-D-galactosidase (bovine liver) (Bos taurus, UniProt F1MNT6); test: Glycosidase inhibition (Table 2 panel); assay type: biochemical
T1 sequence (F1MNT6 1-469): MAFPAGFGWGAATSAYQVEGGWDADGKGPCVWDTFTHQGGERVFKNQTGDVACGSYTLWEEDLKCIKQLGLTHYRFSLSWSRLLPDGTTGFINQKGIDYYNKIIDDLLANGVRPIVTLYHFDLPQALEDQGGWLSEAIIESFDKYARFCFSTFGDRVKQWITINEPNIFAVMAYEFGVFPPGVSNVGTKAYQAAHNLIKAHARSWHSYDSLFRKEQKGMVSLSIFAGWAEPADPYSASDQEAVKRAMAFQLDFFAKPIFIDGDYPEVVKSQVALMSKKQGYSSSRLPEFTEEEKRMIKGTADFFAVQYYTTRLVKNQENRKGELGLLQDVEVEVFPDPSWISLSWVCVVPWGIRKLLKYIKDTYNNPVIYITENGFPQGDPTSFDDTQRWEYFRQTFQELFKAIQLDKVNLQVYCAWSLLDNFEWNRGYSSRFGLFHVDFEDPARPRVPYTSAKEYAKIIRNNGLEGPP
From the text: as §1, §2

β-D-mannosidase (snail) = test: Glycosidase inhibition (Table 2 panel); assay type: biochemical
From the text: as §1, §2

[2] = target: T2, β-D-glucosidase (bovine liver) (Bos taurus, UniProt F1MNT6); test: Glycosidase inhibition (Table 2 panel); assay type: biochemical
T2 sequence (F1MNT6 1-469): T1 sequence (F1MNT6 1-469)
From the text: as §1, §2

β-D-glucosidase (almond) = test: Glycosidase inhibition (Table 2 panel); assay type: biochemical
From the text: as §1, §2

[3] = system: α-L-rhamnosidase (P. decumbens); test: Glycosidase inhibition (Table 2 panel); assay type: biochemical
From the text: as §1, §2

[4] = system: T3, α-D-galactosidase (coffee beans); test: Glycosidase inhibition (Table 2 panel); assay type: biochemical
T3 construct: purchased Sigma-Aldrich; host or cells: coffee beans
From the text: as §1, §2

[5] = system: T4, α-L-fucosidase (bovine kidney); test: Glycosidase inhibition (Table 2 panel); assay type: biochemical; details: at 1000 μM
T4 construct: purchased Sigma-Aldrich; host or cells: bovine kidney
From the text: as §1, §2

[6] = system: T5, α-D-mannosidase (Jack bean); test: Glycosidase inhibition (Table 2 panel); assay type: biochemical
T5 construct: purchased Sigma-Aldrich; host or cells: Jack bean
From the text: as §1, §2

[7] = system: T6, trehalase (porcine kidney); test: Glycosidase inhibition (Table 2 panel); assay type: biochemical
T6 construct: purchased Sigma-Aldrich; host or cells: porcine kidney
From the text: as §1, §2

[8] = system: β-D-glucuronidase (bovine liver); test: Glycosidase inhibition (Table 2 panel); assay type: biochemical
From the text: as §1, §2

[9] = system: α-D-glucosidase (rat intestinal maltase); test: Glycosidase inhibition (Table 2 panel); assay type: biochemical
From the text: as §1, §2

[10] = system: MCF10A (non-tumour derived normal breast cell line); test: Cancer screening, MTT growth inhibition; assay type: cell-based; details: 72 h; for DOSE SCREEN percentage (%) cell growth inhibition MCF10A Breast (normal): 25 µM of drug
[11] = system: α-D-glucosidase (Bacillus); test: Glycosidase inhibition (Table 3 panel); assay type: biochemical; details: 1 mg/mL aqueous solution; run in water
Summary of the method: (§3)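 Enzymes tested at 27 °C in citric acid/disodium hydrogen phosphate buffer at each enzyme's optimum pH, with 1 mg/mL aqueous extract and […] para-nitrophenyl substrate. Reactions stopped with 0.4 M glycine (pH 10.4) within the exponential phase; absorbance read at 405 nm, triplicate means.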

[12] = system: N-acetyl-β-D-glucosaminidase (bovine kidney); test: Glycosidase inhibition (Table 3 panel); assay type: biochemical; details: 1 mg/mL aqueous solution; run in water
Summary of the method: as §3

[13] = system: T5, α-D-mannosidase (Jack bean); test: Glycosidase inhibition (Table 3 panel); assay type: biochemical; details: 1 mg/mL aqueous solution; run in water
Summary of the method: as §3

several glycosidases = test: Glycosidase inhibition, whole Table 3 panel; assay type: biochemical; details: Table 3 assay conditions
Procedure: All enzymes and para-nitrophenyl substrates were purchased from Sigma. Enzymes were assayed at 27 °C in citric acid (0.1 M)/disodium hydrogen phosphate (0.2 M) buffers at the optimum pH for the enzyme. The incubation mixture consisted of […] of 1 mg/mL aqueous solution of extract and […] of the appropriate […] para-nitrophenyl substrate made up in buffer at the optimum pH for the enzyme. The reactions were stopped by addition of […] 0.4 M glycine (pH 10.4) during the exponential phase of the reaction, which had been determined at the beginning using uninhibited assays in which water replaced the inhibitor. Final absorbances were read at 405 nm using a Versamax microplate reader (Molecular Devices, Wokingham, UK). Assays were carried out in triplicate, and the values given are means of the three replicates per assay. All reactions were run in water.

[14] = system: α-D-glucosidase (human lysosome); test: Glycosidase inhibition (Table 2 panel); assay type: biochemical; details: at 100 μM
From the text: as §1, §2

[15] = system: β-D-glucanase (T. Longibrachiatum); test: Glycosidase inhibition (Table 2 panel); assay type: biochemical; details: at 100 μM
[16] = system: β-D-galactosidase (E. coli); test: Glycosidase inhibition (Table 2 panel); assay type: biochemical; details: at 100 μM
[17] = system: α-D-glucosidase (rat intestine); test: Glycosidase inhibition (Table 3 panel); assay type: biochemical; details: 1 mg/mL aqueous solution; run in water
Summary of the method: as §3

[18] = system: N-acetyl-β-D-hexosaminidase (rat intestine); test: Glycosidase inhibition (Table 3 panel); assay type: biochemical; details: 1 mg/mL aqueous solution; run in water
Summary of the method: as §3

[19] = system: β-D-glucosidase (human lysosome); test: Glycosidase inhibition (Table 2 panel); assay type: biochemical; details: at 100 μM
[20] = system: glycosidases in the panel; test: Glycosidase inhibition, whole Table 2 panel; assay type: biochemical
From the text: as §1, §2

α-D-glucosidase (rice), sequence (Q653V7 34-885): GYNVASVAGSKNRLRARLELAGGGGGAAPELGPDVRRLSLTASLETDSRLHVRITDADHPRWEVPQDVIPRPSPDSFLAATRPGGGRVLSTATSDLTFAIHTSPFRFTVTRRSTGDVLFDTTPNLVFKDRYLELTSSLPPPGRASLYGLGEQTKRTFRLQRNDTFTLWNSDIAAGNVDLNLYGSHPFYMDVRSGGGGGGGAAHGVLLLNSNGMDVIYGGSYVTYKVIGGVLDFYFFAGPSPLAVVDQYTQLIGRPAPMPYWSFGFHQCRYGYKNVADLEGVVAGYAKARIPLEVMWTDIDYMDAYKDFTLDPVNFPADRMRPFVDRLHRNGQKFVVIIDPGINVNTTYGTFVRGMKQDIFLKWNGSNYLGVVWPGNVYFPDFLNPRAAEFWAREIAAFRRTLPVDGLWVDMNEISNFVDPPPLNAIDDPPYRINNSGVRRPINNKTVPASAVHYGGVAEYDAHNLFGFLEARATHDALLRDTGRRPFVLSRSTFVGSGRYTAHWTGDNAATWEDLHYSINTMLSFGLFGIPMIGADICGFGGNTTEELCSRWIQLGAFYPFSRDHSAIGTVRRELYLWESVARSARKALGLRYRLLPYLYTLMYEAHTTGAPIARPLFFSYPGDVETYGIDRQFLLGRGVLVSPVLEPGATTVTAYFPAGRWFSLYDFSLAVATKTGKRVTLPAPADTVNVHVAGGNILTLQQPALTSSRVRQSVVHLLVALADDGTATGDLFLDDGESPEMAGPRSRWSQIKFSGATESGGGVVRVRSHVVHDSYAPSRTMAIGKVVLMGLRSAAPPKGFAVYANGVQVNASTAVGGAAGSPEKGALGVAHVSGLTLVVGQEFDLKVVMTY

Substance | inhibition % α-D-Glucosidase Rice (α-D-glucosidase (rice); at 1000 μM) | inhibition % β-D-Galactosidase Bovine Liver ([1]; at 1000 μM) | inhibition % β-D-Mannosidase Snail (β-D-mannosidase (snail); at 1000 μM) | inhibition % β-D-Glucosidase Bovine Liver ([2]; at 1000 μM) | inhibition % β-D-Glucosidase Almond (β-D-glucosidase (almond); at 1000 μM) | inhibition % α-L-Rhamnosidase P. decumbens ([3]; at 1000 μM) | inhibition % α-D-Galactosidase Coffee Beans ([4]; at 1000 μM) | inhibition % α-L-Fucosidase Bovine Kidney [5] | inhibition % α-D-Mannosidase Jack Bean ([6]; at 1000 μM) | inhibition % Trehalase Porcine Kidney ([7]; at 1000 μM) | inhibition % β-D-Glucuronidase Bovine Liver ([8]; at 1000 μM) | inhibition % α-D-Glucosidase Rat Intestinal Maltase ([9]; at 1000 μM) | DOSE SCREEN percentage (%) cell growth inhibition MCF10A Breast (normal) [10] | further results
Borocaptate sodium [BSH, reference compound] | ^aNI ^b(0%) | ^aNI ^b(0%) | ^aNI ^b(19.2%) | ^aNI ^b(15%) | ^aNI ^b(0%) | ^aNI ^b(0.2%) | ^aNI ^b(12.3%) | ^aNI ^b(0%) | ^aNI ^b(7.9%) | ^aNI ^b(4.2%) | ^aNI ^b(19.6%) | ^aNI ^b(0%) | * 8 ± 3% | Percentage inhibition α-D-Glucosidase Bacillus [11]: 48.1%; Percentage inhibition N-Acetyl-β-D-glucosaminidase Bovine Kidney [12]: 37.1%; Percentage inhibition α-D-Mannosidase Jack Bean [13]: −18.7%; Inhibition over the glycosidases of Table 3 (several glycosidases): 31.6–65.9%
N-(3-Hydroxyphenyl)-1,4-dideoxy-1,4-imino-L-gulitol [meta 7] | ^aNI ^b(5.0%) | ^aNI ^b(8.1%) | ^aNI ^b(0%) | ^aNI ^b(13.6%) | ^aNI ^b(9.6%) | ^aNI ^b(2.1%) | ^aNI ^b(1.7%) | ^aNI ^b(2.1%) | ^aNI ^b(0%) | ^aNI ^b(1.9%) | ^aNI ^b(0%) | ^aNI ^b(7.2%) | 31 ± 16% | inhibition % α-D-Glucosidase Rice (α-D-glucosidase (rice); at 100 μM): ^cNI ^d(0%); inhibition % β-D-Galactosidase Bovine Liver ([1]; at 100 μM): ^cNI ^d(17.5%); inhibition % β-D-Mannosidase Snail (β-D-mannosidase (snail); at 100 μM): ^cNI ^d(0%); inhibition % β-D-Glucosidase Bovine Liver ([2]; at 100 μM): ^cNI ^d(0%); inhibition % β-D-Glucosidase Almond (β-D-glucosidase (almond); at 100 μM): ^cNI ^d(0%); inhibition % α-L-Rhamnosidase P. decumbens ([3]; at 100 μM): ^cNI ^d(3.8%); inhibition % α-D-Galactosidase Coffee Beans ([4]; at 100 μM): ^cNI ^d(1.8%); inhibition % α-D-Mannosidase Jack Bean ([6]; at 100 μM): ^cNI ^d(0%); inhibition % α-D-Glucosidase Human Lysosome [14]: ^cNI ^d(0%); inhibition % Trehalase Porcine Kidney ([7]; at 100 μM): ^cNI ^d(0%); inhibition % β-D-Glucuronidase Bovine Liver ([8]; at 100 μM): ^cNI ^d(1.2%); inhibition % α-D-Glucosidase Rat Intestinal Maltase ([9]; at 100 μM): ^cNI ^d(0%); inhibition % β-D-Glucanase T. Longibrachiatum [15]: ^cNI ^d(0%); inhibition % β-D-Galactosidase E. coli [16]: ^cNI ^d(0%); GI50 ([10]; read-out: DOSE RESPONSE GI50 MCF10A Breast (normal)): 43 ± 17 µM; Percentage inhibition α-D-Glucosidase Rat Intestine [17]: −10.7%; Percentage inhibition N-Acetyl-β-D-Hexosaminidase Rat Intestine [18]: −2.5%; inhibition % β-D-Glucosidase Human Lysosome [19]: ^cNI ^d(9.9%); Inhibitory activity over the glycosidase panel, in words [20]: complete abrogation of inhibition; also recorded: abrogation of biological activity
